Reference: patent US6099821A, “Nuclear scintigraphic assessment of mucosal function” (University of Virginia, priority 1999, dated 2000)
Entries after “also recorded” stand apart in the source; their conditions may differ.

Experiments:
mouse jejunal mucosa = test: Dynamic enteroscintigraphy of jejunal absorption of ^99m TcO^-4 after total body irradiation; type: in vivo, C3Hf/Kam mice; settings: for effect of irradiation on intestinal absorption: 4, 6, 8 and 12.5 Gy TBI
Source text: The effect of irradiation on pertechnetate (^99m TcO^-4) absorption in the mouse jejunum was studied in situ following single acute total body irradiation (TBI) with 4 Gy, 6 Gy, 8 Gy, and 12.5 Gy. During irradiation, three unanesthetized mice were placed in a 20×20×3.5 cm air-ventilated plastic jig and exposed to a single-source ^60 Co irradiator (Theratron 780-C) at a dose rate of […], with open irradiation field and 71 cm SSD. This setting assured homogeneous dose distribution within ±3% error.
Four to five mice per irradiation dose of 4 Gy, 6 Gy, 8 Gy and 12.5 Gy per day after irradiation (6 Gy irradiated group) were studied for the intestinal absorption function. The mice were fasted overnight (waster ad libitum) and then anesthetized with 100 μL of 1.5 mg/g ketamine solution injected intraperitoneally. The procedure began with a short midline incision of the abdomen after onset of deep anesthesia, and a 3 cm segment of the upper jejunum was identified, ligated with cotton sutures and catheterized with 0.2 mm flexible plastic catheter.
Next, the abdomen incision was closed with cotton sutures and the mouse was positioned under the collimated detector so the 1.5 cm window of the collimator was viewed at the heart projection with 0.2 cm skin-to-collimator distance. A 100 μL physiologic solution containing 100 μCi of Na(^99m TcO4) was rapidly injected through the catheter into the proximal end of the isolated jejunal segment with complete filling of the entire segment.
The absorption rate of ^99m TcO^-4 from the site of injection into the circulation was recorded automatically by measuring the relative radioactivity build-up rate above the heart projection with the frequency of two measurements per second. The entire dynamic enteroscintigraphy procedure took about 15 minutes in control mice. The systemic absorption of the pertechnetate (^99m TcO^-4) was performed on a standard scintillation radiometer combined with a multichannel analyzer (Ludlum Measurements, Sweetwater, Tex.) to record the radiometry data in time-dependent fashion. The software ULTIMA-4 was used to receive the graphic imaging of the dynamic radiometry data.
Measured activity/time curves detected above the heart are mathematically modeled as exponential saturation of the form y(t)=y0+dy {1-exp[-k(t-t0)]}; where y(t) is the observed time-dependent radioactive counts above the heart; y0 is the observed activity at time of tracer introduction, t0; dy is the magnitude of the change in radioactive counts after tracer introduction; and k is the rate constant characteristic of the active transport of tracer through the intestinal wall into the systemic blood circulation. Analyses of tracer absorption kinetics by this expression allow precise statistical assessment of radiation-induced functional impairment of the jejunal active transport process.

[1] = tested on: intestine lumen / technetium pertechnetate active transport
[2] = literature, cited from earlier work
jejunal mucosa [3] = settings: literature, cited from earlier work
jejunal mucosa [4] = settings: intraluminal, after 12.5 Gy TBI
Description: To exclude a role of simple diffusion ("leakage") of the tracer through the irradiated GI mucosa studies of the intestinal permeability with ^67 Ga-citrate complex introduced into the jejunal lumen at 84 hours after exposure to 12.5 Gy were performed.
In order to evaluate if ^99m TcO^-4 absorption remains an active transport process in irradiated animals rather than passive diffusion or "leakage" phenomenon, studies were performed on irradiated gut permeability with ^67 Ga citrate complex.

[5] = tested on: intestine lumen / technetium pertechnetate active transport; settings: mouse, in vivo; cited from earlier work
[6] = general statement; cited from earlier work
jejunal crypts = test: Jejunal microcolony assay (surviving crypts); type: in vivo, C3H mice; settings: 3.5 days, vs control
Description: (§1) At 3.5 days after irradiation with 4, 6, 8 and 12.5 Gy and immediately upon completion of the absorption study, groups of 4-5 mice per radiation dose were killed by cervical dislocation and a 2-cm length of jejunum was removed for histological preparation. Intestinal segments were fixed in 10% neutral buffered formalin. Four transverse sections of intestine were prepared embedded into paraffin, cut at a thickness of 4 μm and stained with hematoxylin and eosin (H&E). Slides with tissue sections were examined with light microscopy under 400-power magnification. A total of 500 crypt cells per mouse form 12-16 complete crypts were scored as mitotic or apoptotic. The jejunum microcolony assay of H. R. Withers et al., J. Rad. Biol., 17, 261 (1970) was used to quantify jejunal crypt survival. Tissue sections were scored microscopically using 100-power magnification. Surviving crypts contained at least 10 tightly packed columnar epithelial cells located in the base of the crypt (discrete cell microcolonies). The number of surviving crypts/circumference of jejunum was plotted as a function of radiation dose in Gy.
(§2) C3H female mice, 11-13 weeks of age, were used in this study.
(§3) The dynamic enteroscintigraphy with ^99m Tc-pertechnetate and the morphology studies were performed as described above in Example 1.

jejunum of C3H mice = settings: mouse, in vivo, 2 mg/kg
Description: as §2, §3

[7] = Toxicity of 9-aminocamptothecin; settings: single 2 mg/kg 9-AC intramuscular injection
jejunal mucosa [8] = type: in vivo, C3H mice; settings: 2 mg/kg 9-AC + 4 Gy TBI, day 3.5
Description: as §1, §2, §3

intestinal villi = type: in vivo, C3H mice; settings: 9-AC (4 mg/kg), 3.5 days
Description: as §1, §2, §3

technetium pertechnetate [^99m TcO^-4]
effect of irradiation on intestinal absorption (mouse jejunal mucosa): substantial dose-dependent decrease in the absorption function; also recorded: significantly decreases ^99m TcO^-4 jejunal absorption | effect of irradiation on intestinal absorption (mouse jejunal mucosa; listed as 99m Technetium-pertechnetate): decreased in a dose-dependent fashion | mean rate of the tracer absorption (mouse jejunal mucosa; 4 Gy TBI, 3.5 days after irradiation): 1.51±0.15 | time of minimal absorption after irradiation (mouse jejunal mucosa; 6 Gy TBI): 3.5 days | time to return of absorption rate to a normal level (mouse jejunal mucosa; 6 Gy TBI): about 14 days | effect of irradiation on absorption function at 24 hours (mouse jejunal mucosa; 6 Gy TBI, 24 hours after irradiation): significant decrease in the absorption function; also recorded: significant effect | jejunal absorption, % of the control level (mouse jejunal mucosa; 12.5 Gy TBI, 3.5 days after irradiation, listed as 99m Technetium-pertechnetate): ~25 % of the control level | correlation of decrease in absorption with cells per villus and irradiation dose (mouse jejunal mucosa; 3.5 days after 4 to 12.5 Gy): correlated with the numbers of cells per villus and the irradiation dose | mean rate of the tracer absorption (mouse jejunal mucosa; control (no irradiation)): 1.35±0.25 | time of maximal reduction of absorption (mouse jejunal mucosa; independently of TBI doses used): 84 h | intestinal absorption into the bloodstream ([1]; control mice): Rapid absorption | metabolic activity [2]: low metabolic activity | radiotoxicity [2]: one of the least radiotoxic nuclides | γ-emission energy [2]: 140 keV | half-life ([2]; radionuclide): 6 h

[131IH] [^131 Iodine, iodine-131]
shape of intestinal absorption curve / active transport kinetics ([1]; mouse, in vivo): same shape of the ^99m TcO^-4 intestinal absorption curve was obtained

O=C([O-])CC(O)(CC(=O)[O-])C(=O)[O-].[67Ga+3] [^67 Ga-citrate]
accumulation in the sites of lesion (jejunal mucosa [3]; inflammation or local hyperthermia): augments ^67 Ga-citrate accumulation in the sites of lesion | crossing of the intestinal epithelial barrier (jejunal mucosa [3]; normal): normally does not cross the intestinal epithelial barrier | jejunal mucosa permeability (jejunal mucosa [4]): jejunal mucosa stays impermeable

[K+].[O-][Cl+3]([O-])([O-])[O-] [KClO4, potassium perchlorate]
shift of the saturation point on the radioactivity/time curve ([1]; mouse, in vivo): shifted the saturation point on the radioactivity/time curve to the right without changes in the amount of the absorbed tracer | competitive inhibition of technetium pertechnetate active transport [5]: known competitive inhibitor

CC[C@@]1(O)C(=O)OCc2c1cc1n(c2=O)Cc2cc3c(N)cccc3nc2-1 [9-aminocamptothecin]
GI toxicity [6]: pronounced GI toxicity | jejunal crypt survival (jejunal crypts; 9-AC (2 mg/kg) plus irradiation (4 Gy)): failed to show any difference in jejunal crypt survival | jejunal crypt survival (jejunal crypts; 9-AC alone (2 mg/kg)): failed to show any difference in jejunal crypt survival | mean rate of ^99m Tc-pertechnetate intestinal absorption (jejunum of C3H mice): significantly delayed | 2 mg/kg intramuscular dose as fraction of LD10 [7]: 1/2 | additive decrease in absorption vs number of apoptotic cells in the jejunal mucosa (jejunal mucosa [8]): correlates well with the number of apoptotic cells in the jejunal mucosa | cell loss on the intestinal villi (intestinal villi): maximal cell loss on the intestinal villi
